Counter-ions that a name gives are not always drawn. Bounds are passed on as bounds.

Results on 29 compounds are retold here after patent US9693997B2, “Antiviral compounds” (priority 2013, dated 2017).

Common to all, as to experiment: microbe, parasite or virus in culture
The test system of test [1] is Pseudotyped HCV GT1b particles (HCVpp), entry into Huh7-high CD81 cells. In kind it is cell-based, HCV GT1b Con1 strain. The following applies: Hepatitis C virus, GT1B, 72 h, read-out: HCVpp GT-1b (EC50, μM).
Test [2] has as its system Pseudotyped HCV GT1a particles (HCVpp), entry into Huh7-high CD81 cells. In kind it is cell-based, HCV GT1a H77 strain. To be noted: Hepatitis C virus, 72 h, read-out: HCVpp GT-1a (EC50, μM).
The test system of test [3] is pseudotyped VSV G particles (VSVpp) in Huh7-high CD81 cells. It is filed as cell-based, vesicular stomatitis virus. To be noted: Vesicular stomatitis virus, 72 h, read-out: VSVpp (EC50, μM).

For orientation: EC50 means the midpoint of the concentration-response curve. Turning to `CC(C)S(=O)(=O)c1ccc(-c2c(F)cc(Nc3n[nH]c(N)n3)cc2Cl)cc1` [Compound 23, N*3*-[2-Chloro-6-fluoro-4′-(propane-2-sulfonyl)-biphenyl-4-yl]-1H-[1,2,4]triazole-3,5-diamine], the figures for the concentration for a half-maximal effect (EC50) in test [1], in test [2] and in test [3] were 0.092 µM, 0.023 µM and greater than 10 µM, respectively.
As to `N#CCCCOc1ccc(-c2c(Cl)cc(Nc3n[nH]c(N)n3)cc2Cl)cc1` [Compound 26, 4-[4′-(5-Amino-1H-[1,2,4]triazol-3-ylamino)-2′,6′-dichloro-biphenyl-4-yloxy]-butyronitrile], the EC50 is 0.116 µM in test [1], 0.008 µM in test [2] and 3.79 µM in test [3].
For `CS(=O)(=O)Cc1ccc(-c2c(Cl)cc(Nc3n[nH]c(N)n3)cc2Cl)cc1` [Compound 31, N*3*-(2,6-Dichloro-4′-methanesulfonylmethyl-biphenyl-4-yl)-1H-[1,2,4]triazole-3,5-diamine], the results for the EC50 in test [1], in test [2] and in test [3] were 0.086 µM, 0.004 µM and 3.23 µM, respectively.
In the case of `Nc1nc(Nc2cc(Cl)c(-c3ccc(OCC4CNC4)cc3)c(Cl)c2)n[nH]1` [Compound 32, N*3*-[4′-(Azetidin-3-ylmethoxy)-2,6-dichloro-biphenyl-4-yl]-1H-[1,2,4]triazole-3,5-diamine; hydrochloride], the values for the EC50 in test [1], in test [2] and in test [3] were 0.116 µM, 0.006 µM and 6.1 µM, respectively.
On the same counts, the results for `Nc1nc(Nc2cc(Cl)c(-c3ccc(S(=O)(=O)N4CCNCC4)cc3)c(C(F)(F)F)c2)n[nH]1` [Compound 33, N*3*-[2-Chloro-4′-(piperazine-1-sulfonyl)-6-trifluoromethyl-biphenyl-4-yl]-1H-[1,2,4]triazole-3,5-diamine] are 0.099 µM, 0.019 µM and 34.3 µM.
`CN(C)S(=O)(=O)c1ccc(-c2c(F)cc(Nc3n[nH]c(N)n3)cc2Cl)cc1` [Compound 34, 4′-(5-Amino-1H-[1,2,4]triazol-3-ylamino)-2′-chloro-6′-fluoro-biphenyl-4-sulfonic acid dimethylamide]: the figures for the EC50 in test [1], in test [2] and in test [3] were 0.122 µM, 0.028 µM and greater than 10 µM, respectively.
As to `Nc1nc(Nc2cc(Cl)c(-c3ccc(NC(=O)CCCC[C@@H]4SC[C@@H]5NC(=O)N[C@@H]54)cc3)c(Cl)c2)n[nH]1` [Compound 39, 5-((3aS,4S,6aR)-2-Oxo-hexaneahydro-thieno[3,4-d]imidazol-4-yl)-pentanoic acid [4′-(5-amino-1H-[1,2,4]triazol-3-ylamino)-2′,6′-dichloro-biphenyl-4-yl]-amide], the figures for the 50% effective concentration (EC50) in test [1], in test [2] and in test [3] were 0.09 µM, 0.002 µM and greater than 10 µM, respectively.
For `Nc1nc(Nc2cc(Cl)c(-c3ccccc3)c(Cl)c2)n[nH]1` [Compound 48, N*3*-(2,6-Dichloro-biphenyl-4-yl)-1H-[1,2,4]triazole-3,5-diamine], the results for the EC50 in test [1], in test [2] and in test [3] were 0.533 µM, 0.01 µM and 30.5 µM, respectively.
Take `Nc1nc(Nc2ccc(-c3ccccc3)cc2)n[nH]1` [Compound 55, N*3*-Biphenyl-4-yl-1H-[1,2,4]triazole-3,5-diamine]: the concentration giving a half-maximal response (EC50) in test [1] worked out at 100 µM; in test [2], 25.1 µM; in test [3], 100 µM.
With `CS(=O)(=O)c1cccc(-c2c(F)cc(Nc3nc(N)n[nH]3)cc2C(F)(F)F)c1` [Compound 74, N^5-(2-Fluoro-3′-(methylsulfonyl)-6-trifluoromethylbiphenyl-4-yl)-1H-[1,2,4]-triazole-3,5-diamine], the concentration for a half-maximal effect (EC50) in test [1] was 0.169 µM; in test [2], 0.055 µM; in test [3], 16.9 µM.
For the compound `Nc1nc(Nc2cc(Cl)c(-c3ccc(OC(F)(F)F)cc3)c(Cl)c2)n[nH]1` [Compound 91, N-3-(2,6-Dichloro-4′-trifluoromethyoxy-biphenyl-4-yl)-1H[1,2,4]triazole-3,5-diamine], the results for the EC50 in test [1], in test [2] and in test [3] were 1.13 µM, 0.065 µM and 23.3 µM, respectively.
Consider `Nc1nc(Nc2cc(Cl)c(-c3cccc(Cl)c3)c(Cl)c2)n[nH]1` [Compound 92, N3-(2,3′,6-Trichlorobiphenyl-4-yl)-1H-1,2,4-triazole-3,5-diamine], for which the concentration giving a half-maximal response (EC50) was found to be 0.57 µM in test [1], 0.034 µM in test [2] and 35.5 µM in test [3].
As to `N#Cc1ccc(-c2c(Cl)cc(Nc3n[nH]c(N)n3)cc2Cl)cc1` [Compound 93, 4′-(5-Amino-1H-1,2,4-triazol-3-ylamino)-2′,6′-dichlorobiphenyl-4-carbonitrile], the 50% effective concentration (EC50) in test [1] was determined as 0.364 µM; in test [2] it was 0.015 µM; in test [3], 14.8 µM.
In the case of `CS(=O)(=O)c1ccc(-c2c(Cl)cc(Nc3n[nH]c(N)n3)cc2Cl)cc1` [Compound 94, N3-(2,6-Dichloro-4′-(methylsulfonyl)biphenyl-4-yl)-1H-1,2,4-triazole-3,5-diamine], the half-maximal effective concentration (EC50) in test [1] was 0.174 µM; in test [2], 0.007 µM; in test [3] it was 2 µM.
On to `Nc1nc(Nc2cc(Cl)c(-c3cccc4ccccc34)c(Cl)c2)n[nH]1` [Compound 95, N-3-(3,5-Dichloro-4-naphthalen-1-yl-phenyl)-1H-[1,2,4]triazole-3,5-diamine], for which the concentration giving a half-maximal response (EC50) in test [1] came to 0.229 µM; in test [2] it was 0.028 µM; in test [3] it was 24.1 µM.
Take `Nc1nc(Nc2cc(Cl)c(-c3ccc(Cl)cc3)c(Cl)c2)n[nH]1` [Compound 96, N-3-(2,6,4′-Trichloro-biphenyl-4-yl)-1H-[1,2,4]triazole-3,5-diamine]: the EC50 worked out at 0.927 µM in test [1], 0.009 µM in test [2] and 4.27 µM in test [3].
Regarding `Cc1ccc(-c2c(Cl)cc(Nc3n[nH]c(N)n3)cc2Cl)cc1` [Compound 97, N-3-(2,6-Dichloro-4′-methyl-biphenyl-4-yl)-1H-[1,2,4]triazole-3,5-diamine], the EC50 is 0.704 µM in test [1], 0.007 µM in test [2] and 9.33 µM in test [3].
On the same counts, the results for `COc1ccc(-c2c(Cl)cc(Nc3n[nH]c(N)n3)cc2Cl)cc1` [Compound 98, N-3-(2,6-Dichloro-4′-methoxy-biphenyl-4-yl)-1H-[1,2,4]triazole-3,5-diamine] are 0.353 µM, 0.01 µM and 5.25 µM.
For `Nc1nc(Nc2cc(Cl)c(-c3ccc(C(F)(F)F)cc3)c(Cl)c2)n[nH]1` [Compound 99, N-3-(2,6-Dichloro-4′-trifluoromethyl-biphenyl-4-yl)-1H-[1,2,4]triazole-3,5-diamine], the concentration for a half-maximal effect (EC50) in test [1] was determined as 1.57 µM; in test [2], 0.056 µM; in test [3], 20.6 µM.
Regarding `COc1cccc(-c2c(Cl)cc(Nc3n[nH]c(N)n3)cc2Cl)c1` [Compound 100, N-3-(2,6-Dichloro-3′-methoxy-biphenyl-4-yl)-1H-[1,2,4]triazole-3,5-diamine], the EC50 came out at 0.839 µM in test [1], 0.062 µM in test [2] and 14.3 µM in test [3].
As to `Nc1nc(Nc2cc(Cl)c(-c3ccccc3Cl)c(Cl)c2)n[nH]1` [Compound 101, N-3-(2,6,2′-Trichloro-biphenyl-4-yl)-1H-[1,2,4]triazole-3,5-diamine], the figures for the concentration for a half-maximal effect (EC50) in test [1], in test [2] and in test [3] were 0.514 µM, 0.037 µM and 13.2 µM, respectively.
In the case of `Nc1nc(Nc2cc(Cl)c(-c3ccc(Cl)c(Cl)c3)c(Cl)c2)n[nH]1` [Compound 102, N-3-(2,6,3′,4′-Tetrachloro-biphenyl-4-yl)-1H-[1,2,4]triazole-3,5-diamine], the values for the EC50 in test [1], in test [2] and in test [3] were 0.931 µM, 0.062 µM and 6.33 µM, respectively.
In the case of `N#Cc1cccc(-c2c(Cl)cc(Nc3n[nH]c(N)n3)cc2Cl)c1` [Compound 103, 4′-(5-Amino-1H-[1,2,4]triazol-3-ylamino)-2′,6′-dichloro-biphenyl-3-carbonitrile], the results for the EC50 in test [1], in test [2] and in test [3] were 0.269 µM, 0.025 µM and 13.3 µM, respectively.
Take `N#Cc1ccccc1-c1c(Cl)cc(Nc2n[nH]c(N)n2)cc1Cl` [Compound 104, 4′-(5-Amino-1H-[1,2,4]triazol-3-ylamino)-2′,6′-dichloro-biphenyl-2-carbonitrile]: the concentration giving a half-maximal response (EC50) came to 1.28 µM in test [1], 0.072 µM in test [2] and 17.8 µM in test [3].
With `N#Cc1cc(-c2c(Cl)cc(Nc3n[nH]c(N)n3)cc2Cl)ccc1Cl` [Compound 105, 4′-(5-Amino-1H-[1,2,4]triazol-3-ylamino)-4,2′,6′-trichloro-biphenyl-3-carbonitrile], the EC50 was found to be 0.472 µM in test [1], 0.039 µM in test [2] and 16.8 µM in test [3].
For `Nc1nc(Nc2cc(Cl)c(-c3cccc(C(=O)O)c3)c(Cl)c2)n[nH]1` [Compound 106, 4′-(5-Amino-1H-[1,2,4]triazol-3-ylamino)-2′,6′-dichloro-biphenyl-3-carboxylic acid] the same measures were 23.4 µM, 1.17 µM and 100 µM.
As to `CC(=O)c1ccc(-c2c(Cl)cc(Nc3n[nH]c(N)n3)cc2Cl)cc1` [Compound 107, 1-[4′-(5-Amino-1H-[1,2,4]triazol-3-ylamino)-2′,6′-dichloro-biphenyl-4-yl]-ethanone], the 50% effective concentration (EC50) in test [1] amounted to 0.228 µM; in test [2], 0.008 µM; in test [3] it was 11.1 µM.
For the compound `CS(=O)(=O)Nc1ccc(-c2c(Cl)cc(Nc3n[nH]c(N)n3)cc2Cl)cc1` [Compound 111, N-[4′-(5-Amino-1H-[1,2,4]triazol-3-ylamino)-2′,6′-dichloro-biphenyl-4-yl]-methanesulfonamide], the half-maximal effective concentration (EC50) came to 0.039 µM in test [1], 0.003 µM in test [2] and 7.53 µM in test [3].
On the same counts, the results for `CS(=O)(=O)Nc1cccc(-c2c(Cl)cc(Nc3n[nH]c(N)n3)cc2Cl)c1` [Compound 112, N-[4′-(5-Amino-1H-[1,2,4]triazol-3-ylamino)-2′,6′-dichloro-biphenyl-3-yl]-methanesulfonamide] are 0.048 µM, 0.006 µM and 15.3 µM.
